Paper PMC4014701 (Pharmaceuticals, 2014)
Values after ≈ are worked out from the molar mass of the structure shown. Like-named read-outs stand apart in the source and are kept apart here.

Legend:
[1] = Solubility study in distilled deionized water (DDW); conditions: for Solubility, fold higher relative to LPV: DDW; for Solubility in DDW: saturated solution, room temperature, 24 h; for solubility at 24 h: distilled deionized water, water, thermodynamic from solid
Experimental: Aqueous solubility study of prodrugs was performed according to the published protocol from our laboratory. Saturated solution of each prodrug was prepared in DDW in siliconized tubes. Tubes were placed in shaking water bath at room temperature (RT) for 24 h. Tubes were centrifuged at 10,000 rpm for 10 min to separate undissolved prodrugs. The supernatant was separated, filtered through 0.45 µm membrane (Nalgene syringe filter) and analyzed with HPLC after appropriate dilutions.
(§1) Aqueous solubility and buffer stability samples were measured with reversed phase HPLC technique. Waters 515 pump (Waters, Milford, MA, USA) connected to a UV detector (Absorbance Detector Model UV-C, RAININ, Dynamax, Palo Alto, CA, USA) was employed. A C(18) Kinetex column (100 × 4.6 mm, 2.6 µ; Phenomenex, Torrance, CA, USA) was pumped with mobile phase (1:1) acetonitrile and water (0.1% trifluoroacetic acid) at a flow rate of 0.3 mL/min. Analytes were detected with UV detection at a wavelength of 210 nm.

[2] = Buffer stability (chemical hydrolysis) in DPBS; conditions: for Degradation half life: DPBS; for half-life at 50 µM: DPBS buffer
Experimental: Chemical hydrolysis study of prodrugs was carried out according to the previously published protocols from our laboratory. Degradation rate constant and half-life (t1/2) of prodrugs were determined at various pH. […] Microcentrifuge tubes were placed in shaking water bath (60 rpm) at 37 °C. Samples (100 µL) were withdrawn at predetermined time points and stored at −80° C until further analysis. Prodrug concentrations remaining were plotted versus time in order to calculate degradation rate constants.
as §1

P-gp (MDCK-MDR1 cells) [3] = biological target: T1, P-gp (MDCK-MDR1 cells) (Homo sapiens, UniProt P08183); assay: Transepithelial transport across MDCK-MDR1 cells
Experimental: Samples were stored at −80 °C until further analysis.
Samples were extracted with liquid–liquid extraction technique.

[4] = tested on: CYP3A4 (rat liver microsomes); assay: Rat liver microsomal stability; conditions: for Half life in liver microsomes, fold higher compared to LPV: time dependent study
Experimental: (§2) One mL of microsomal solution was generated by adding microsomal protein (0.3 mg/mL), magnesium chloride (5 mM), glucose 6-phosphate (5 mM), b-NADP1 (1 mM), and glucose 6-phosphate dehydrogenase (1 U/mL) in phosphate buffer (100 mM, pH 7.4). […] The metabolic reaction was initiated by adding the NADPH generating system. NADPH generating system was freshly prepared by adding G-6-P, G-6-P DH and NADP in DDW. At predetermined time points, metabolic reaction was arrested by adding equal volumes of ice-cold acetonitrile to the sample. Samples were stored at −80 °C until further analysis by LCMS/MS technique.
(§3) This study was performed according to the previously published protocols from our laboratory. At predetermined time points, about 100 μL of samples were withdrawn and equal volume of acetonitrile was added to stop the degradation process. Degradation study was conducted for a period of 2 h. Samples were stored at −80 °C until further analysis.
(§4) Enzymatic degradation was arrested by adding equal amount of acetonitrile and samples were stored in −80 °C until further analysis.
(§5) Rat liver microsomes were employed at the concentration of 0.3 mg/mL. […] Liver microsomal solution was incubated with ketoconazole for 15 min prior to the initiation of stability study.

MRP2 (MDCK-MRP2 cells) [5] = biological target: T2, MRP2 (MDCK-MRP2 cells) (Homo sapiens, UniProt Q92887); assay: Transepithelial transport across MDCK-MRP2 cells
Experimental: Transwell® inserts were coated with type 1 rat tail collagen (100 µg/cm^2). Cells were seeded at a density of 250,000 cells per well. Transport studies were conducted across MDCK-MDR1 and MDCK-MRP2 cells in presence and absence of efflux inhibitors for a period of 3 h at 37 °C. Prior to the initiation of transport study, cell monolayer integrity was evaluated by monitoring transepithelial electric resistance (TEER), with an EVOM (epithelial volt ohmmeter from World Precision Instruments, Sarasota, FL, USA). TEER values of the cell monolayer were approximately 250 Ω*cm^2. Monolayers were washed thoroughly with DBPS (pH7.4) for 15 min at 37 °C, three times. […] At predetermined time points (30, 60, 120 and 180 min), 100 µL sample was withdrawn from the receiving chamber and replaced with fresh DPBS to maintain sink conditions. Samples were stored at −80 °C until further analysis. To determine the effect of efflux inhibitors, cells were treated GF 120918 (MDCK-MDR1) and MK 571 (MDCK-MRP2) prior to initiation of the transport study.
Samples were extracted with liquid–liquid extraction technique. About, 50 μL of verapamil (200 ng) was added as an internal standard to each sample. Analytes were extracted by vortexing with 800 μL water saturated ethyl acetate for 2.5 min. Following centrifugation at 10,000 rpm for 7 min, approximately 600 µL of ethyl acetate layer was collected and evaporated under reduce pressure for 45 min. The residue was reconstituted in 100 μL of acetonitrile (80%) and water (20%) containing 0.1% formic acid. Ten microliters of reconstituted samples were injected in LCMS/MS. Similarly, standard solutions were extracted from DPBS and quantified with LCMS/MS. […]
Transepithelial permeability was determined by plotting cumulative amount of analyte transported against time. […]
Transepithelial permeability was calculated by normalizing the steady-state flux with the donor concentration (Cd) according to Equation (2): Transepithelial permeability = flux/Cd (2)

P-gp (MDCK-MDR1 cells) [6] = biological target: T1, P-gp (MDCK-MDR1 cells); assay: Cellular uptake of unlabelled LPV and prodrugs in MDCK-MDR1 cells; assay type: in vitro ADME; set-up: A. Schinkel and P. Borst (Netherlands Cancer Institute); host or cells: MDCK (MDCK-MDR1), retrovirally transfected; conditions: 5 µM, 30 min
Experimental: About 500 µL of DMEM was added to each well and plates were kept in −80 °C overnight for cell lysis.

MDCK-WT cells = assay: Cytotoxicity, MTS assay; assay type: cell-based; conditions: 4 h incubation; for Reduction in absorbance (positive controls): medium containing 10% DMSO or 0.1% Triton-X
Experimental: Cytotoxicity of prodrugs was determined in MDCK-WT cells with MTS assay based cytotoxicity kit. Briefly, cells were grown overnight in 96 well plates at a density of 20,000 cells per well prior to drug and prodrug addition. […] Cells were then incubated for 4 h at 37 °C. Following incubation, 20 μL of MTS stock solution was added to each well and incubated for 2 h at 37 °C. […] The quantity of formazan product as measured by absorbance is directly proportional to the number of viable cells in test samples.

CYP3A4 = assay: Rat liver microsomal stability; conditions: Sprague Dawley, rat, pH 7.4
Experimental: as §2, §3, §4, §5

P-gp (MDCK-MDR1 cells) [7] = biological target: T1, P-gp (MDCK-MDR1 cells); conditions: MDCK-MDR1, DPBS pH 7.4, 37 °C
Experimental: (§6) Confluent cells were then trypsinized and plated at a density of 3 × 10^6 cells in 12 well culture plates. Medium was replaced every alternate day until cells reached confluency (6–7 days). Cellular uptake studies were performed on confluent cell monolayers according to previously published protocol from our laboratory. Briefly, medium was removed and cell monolayer was washed with 2 mL of DPBS (130 mM NaCl, 0.03 mM KCl, 7.5 mM Na2HPO4, 1.5 mM KH2PO4, 1 mM CaCl2, 0.5 mM MgSO4, and 5 mM glucose, pH 7.4) three times at 37 °C (each wash of 10 min). […] Following incubation, radioactive solution was quickly removed and plates were washed with ice-cold stop solution (210 mM KCl, 2 mM HEPES, pH of 7.4) to arrest the uptake process. One mL of lysis buffer (0.1% Triton-X solution in 0.3% NaOH) was added to each well and plates were stored overnight at RT. Later, 500 µL solutions were transferred to scintillation vials containing 3 mL of scintillation cocktail. The radioactivity associated with cells was analyzed with a scintillation counter (Beckman Instruments Inc., Model LS-6500; Fullerton, CA, USA). Uptake rate was normalized to protein count which was quantified with a BioRad protein estimation kit.
(§7) Prior to initiation of uptake studies, cells were treated with efflux inhibitors for a period of 15 min. Uptake study was then initiated according to a procedure described in section 2.2.5.

MRP2 (MDCK-MRP2 cells) [8] = biological target: T2, MRP2 (MDCK-MRP2 cells); assay: [3H]-LPV uptake in MDCK-MRP2 cells; assay type: cell-based; set-up: A. Schinkel and P. Borst (Netherlands Cancer Institute); host or cells: MDCKII (MDCKII-MRP2), retrovirally transfected; conditions: for [3H]-LPV uptake, fold enhancement in presence of inhibitor: DPBS pH 7.4, 37 °C
Experimental: as §6, §7

T2 sequence (Q92887 whole entry): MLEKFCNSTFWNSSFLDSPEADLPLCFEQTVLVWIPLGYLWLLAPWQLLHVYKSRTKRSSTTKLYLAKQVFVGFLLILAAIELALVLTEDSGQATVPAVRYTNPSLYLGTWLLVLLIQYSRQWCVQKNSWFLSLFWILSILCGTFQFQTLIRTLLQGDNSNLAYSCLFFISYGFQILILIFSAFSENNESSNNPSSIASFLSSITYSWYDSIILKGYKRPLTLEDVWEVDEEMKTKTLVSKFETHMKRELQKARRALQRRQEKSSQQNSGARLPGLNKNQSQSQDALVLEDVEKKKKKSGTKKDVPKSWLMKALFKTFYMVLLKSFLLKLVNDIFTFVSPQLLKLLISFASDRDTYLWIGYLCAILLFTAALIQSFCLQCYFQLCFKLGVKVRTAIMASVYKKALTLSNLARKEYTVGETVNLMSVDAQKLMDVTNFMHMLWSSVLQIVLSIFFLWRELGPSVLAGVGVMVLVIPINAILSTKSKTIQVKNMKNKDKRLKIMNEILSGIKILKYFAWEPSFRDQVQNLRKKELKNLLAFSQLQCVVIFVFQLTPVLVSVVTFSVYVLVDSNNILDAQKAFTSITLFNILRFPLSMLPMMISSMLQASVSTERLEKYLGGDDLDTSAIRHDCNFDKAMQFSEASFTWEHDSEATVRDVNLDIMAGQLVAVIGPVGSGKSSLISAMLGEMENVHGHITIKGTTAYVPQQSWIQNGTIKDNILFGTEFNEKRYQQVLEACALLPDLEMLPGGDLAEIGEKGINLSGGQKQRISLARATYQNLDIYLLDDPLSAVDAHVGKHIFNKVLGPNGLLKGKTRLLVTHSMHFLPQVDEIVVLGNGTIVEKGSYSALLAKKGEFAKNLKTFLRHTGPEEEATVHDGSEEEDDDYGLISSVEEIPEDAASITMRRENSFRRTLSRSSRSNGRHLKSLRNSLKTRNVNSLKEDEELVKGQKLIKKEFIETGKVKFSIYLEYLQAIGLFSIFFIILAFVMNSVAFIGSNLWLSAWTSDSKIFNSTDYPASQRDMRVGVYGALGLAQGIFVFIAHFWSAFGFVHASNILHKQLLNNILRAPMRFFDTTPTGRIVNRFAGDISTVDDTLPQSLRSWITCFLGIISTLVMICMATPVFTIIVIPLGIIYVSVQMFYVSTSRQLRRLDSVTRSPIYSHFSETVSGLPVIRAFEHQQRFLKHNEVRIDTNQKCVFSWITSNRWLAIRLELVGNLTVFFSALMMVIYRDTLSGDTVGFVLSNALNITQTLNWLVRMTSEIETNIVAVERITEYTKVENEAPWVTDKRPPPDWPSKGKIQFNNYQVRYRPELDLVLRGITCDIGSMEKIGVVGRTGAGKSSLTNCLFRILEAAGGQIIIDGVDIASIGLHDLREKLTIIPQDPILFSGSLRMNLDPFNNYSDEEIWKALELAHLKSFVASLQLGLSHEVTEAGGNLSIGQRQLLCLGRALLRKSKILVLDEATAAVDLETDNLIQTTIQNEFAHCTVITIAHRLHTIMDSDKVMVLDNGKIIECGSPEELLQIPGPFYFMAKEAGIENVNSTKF
T1 sequence (P08183 whole entry): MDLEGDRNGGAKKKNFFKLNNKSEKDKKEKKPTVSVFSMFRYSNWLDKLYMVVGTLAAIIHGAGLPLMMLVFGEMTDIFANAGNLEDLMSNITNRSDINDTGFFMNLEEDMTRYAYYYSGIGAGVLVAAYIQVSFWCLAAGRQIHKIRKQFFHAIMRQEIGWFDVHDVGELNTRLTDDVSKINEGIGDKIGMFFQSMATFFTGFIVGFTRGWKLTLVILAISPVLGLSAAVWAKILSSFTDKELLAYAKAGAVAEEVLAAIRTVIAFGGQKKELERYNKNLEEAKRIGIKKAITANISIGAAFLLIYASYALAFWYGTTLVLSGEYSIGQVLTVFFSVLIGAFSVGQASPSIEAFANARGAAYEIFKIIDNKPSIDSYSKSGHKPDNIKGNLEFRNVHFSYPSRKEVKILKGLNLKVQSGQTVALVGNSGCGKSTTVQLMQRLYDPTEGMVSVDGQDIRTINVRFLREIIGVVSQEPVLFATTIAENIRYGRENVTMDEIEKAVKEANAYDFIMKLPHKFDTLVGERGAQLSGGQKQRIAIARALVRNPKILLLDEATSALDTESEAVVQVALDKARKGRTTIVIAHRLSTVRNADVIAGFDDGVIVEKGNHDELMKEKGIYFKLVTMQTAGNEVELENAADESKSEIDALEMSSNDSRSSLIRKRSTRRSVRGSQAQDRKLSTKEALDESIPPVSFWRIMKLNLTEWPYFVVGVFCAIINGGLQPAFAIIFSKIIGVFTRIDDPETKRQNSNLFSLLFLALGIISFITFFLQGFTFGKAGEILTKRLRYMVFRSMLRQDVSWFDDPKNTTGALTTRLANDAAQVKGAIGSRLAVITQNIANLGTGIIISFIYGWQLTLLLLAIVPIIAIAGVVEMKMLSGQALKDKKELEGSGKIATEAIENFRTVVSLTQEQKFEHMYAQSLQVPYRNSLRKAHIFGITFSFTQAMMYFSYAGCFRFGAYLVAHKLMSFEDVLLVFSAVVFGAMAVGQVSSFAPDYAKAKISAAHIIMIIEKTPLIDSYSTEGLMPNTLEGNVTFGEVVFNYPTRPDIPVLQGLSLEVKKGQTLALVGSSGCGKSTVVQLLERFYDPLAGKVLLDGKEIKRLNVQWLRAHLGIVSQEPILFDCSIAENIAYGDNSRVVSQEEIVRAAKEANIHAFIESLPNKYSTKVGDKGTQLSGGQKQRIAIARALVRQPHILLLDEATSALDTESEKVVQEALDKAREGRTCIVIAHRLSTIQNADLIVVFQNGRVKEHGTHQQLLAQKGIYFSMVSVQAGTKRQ

**Q.** For `Cc1cccc(C)c1OCC(=O)NC(Cc1ccccc1)C(CC(Cc1ccccc1)NC(=O)C(C(C)C)N1CCCNC1=O)OC(=O)C(N)Cc1c[nH]c2ccccc12` (stereo not shown) [Trp-LPV, tryptophan-LPV], which “Solubility, fold higher relative to LPV” value [1] is on record?
**A.** ~7 fold

**Q.** What about the “Solubility in DDW” value [1] of the same compound?
**A.** 274 ± 11 µg/mL (≈ 336 µM)

**Q.** And the Degradation half life ([2]; pH 4, 37 °C)?
**A.** 123 ± 14 h

**Q.** And the Degradation half life ([2]; pH 5.5, 37 °C)?
**A.** 50 ± 9 h

**Q.** What about the Degradation half life ([2]; pH 7.4, 37 °C) of the same compound?
**A.** 5.4 ± 0.3 h

**Q.** What about the “A-B permeability, fold higher relative to LPV” value (P-gp (MDCK-MDR1 cells) [3]) of the same compound?
**A.** ~1.8 fold

**Q.** What about the Km ([4]; read-out: Km (affinity constant), 0.5–40 µM, 5 min, microsomes 0.3 mg/mL, Michaelis-Menten fit) of the same compound?
**A.** ~13.2 µM

**Q.** And the “Half life in liver microsomes, fold higher compared to LPV” value (shortened to “Half life … fold higher compared to LPV”) [4]?
**A.** 1.6 to 1.8 fold

**Q.** What about the “A-B permeability, fold higher relative to LPV” value (MRP2 (MDCK-MRP2 cells) [5]) of the same compound?
**A.** ~1.7 fold

**Q.** And the “Cellular uptake, fold higher relative to LPV” value (P-gp (MDCK-MDR1 cells) [6])?
**A.** ~1.8 fold

**Q.** Which “Reduction in absorbance (positive controls)” value (MDCK-WT cells) does the source give for `C[S+](C)[O-]` [DMSO] here?
**A.** 30%

**Q.** With `CCC(C)C(N)C(=O)OC(CC(Cc1ccccc1)NC(=O)C(C(C)C)N1CCCNC1=O)C(Cc1ccccc1)NC(=O)COc1c(C)cccc1C` (stereo not shown) [Ile-LPV, isoleucine-LPV] as the compound, how does the “Solubility, fold higher relative to LPV” value [1] read?
**A.** about 15 fold

**Q.** What about the solubility at 24 h [1] of the same compound?
**A.** 625 ± 27 µg/mL (≈ 842 µM)

**Q.** What about the half-life at 50 µM ([2]; pH 4) of the same compound?
**A.** 4.21 ± 1.21 days

**Q.** What about the half-life at 50 µM ([2]; pH 5.5) of the same compound?
**A.** 2.21 ± 0.417 days

**Q.** And the half-life at 50 µM ([2]; pH 7.4)?
**A.** 0.267 ± 0.0125 days

**Q.** And the “A-B permeability, fold higher relative to LPV” value (P-gp (MDCK-MDR1 cells) [3])?
**A.** about 3 fold

**Q.** And the “Half life … fold higher compared to LPV” value [4]?
**A.** 1.6 to 1.8 fold

**Q.** What about the Km at 5 min (CYP3A4) of the same compound?
**A.** ~14.3 µM

**Q.** And the “A-B permeability, fold higher relative to LPV” value (MRP2 (MDCK-MRP2 cells) [5])?
**A.** about 2.8 fold

**Q.** What about the “Cellular uptake, fold higher relative to LPV” value (P-gp (MDCK-MDR1 cells) [6]) of the same compound?
**A.** about 2.7 fold

**Q.** For `Cc1cccc(C)c1OCC(=O)N[C@@H](Cc1ccccc1)[C@@H](O)C[C@H](Cc1ccccc1)NC(=O)[C@H](C(C)C)N1CCCNC1=O` [LPV, lopinavir], which solubility at 24 h [1] is on record?
**A.** 40 ± 8 µg/mL (≈ 63.6 µM)

**Q.** And the Cytotoxicity (MDCK-WT cells; 100 µM)?
**A.** generated cytotoxic effects

**Q.** And the “[3H]-LPV uptake in presence of increasing concentrations of test compound” value (P-gp (MDCK-MDR1 cells) [7])?
**A.** elevated significantly

**Q.** What about the “[3H]-LPV uptake in presence of increasing concentrations of test compound” value (MRP2 (MDCK-MRP2 cells) [8]; MDCK-MRP2, DPBS pH 7.4, 37 °C) of the same compound?
**A.** enhancement of [3H]-LPV uptake

**Q.** Which “[3H]-LPV uptake, fold enhancement in presence of inhibitor” value (MRP2 (MDCK-MRP2 cells) [8]; 25 µM inhibitor) does the source give for `CN(C)C(=O)CCSC(SCCC(=O)O)c1cccc(/C=C/c2ccc3ccc(Cl)cc3n2)c1` (stereo not shown) [MK 571] here?
**A.** 2.5 fold

**Q.** What about the “[3H]-LPV uptake, fold enhancement in presence of inhibitor” value (MRP2 (MDCK-MRP2 cells) [8]; 75 µM inhibitor) of the same compound?
**A.** 3 fold

**Q.** With `CC(C)(C)CC(C)(C)c1ccc(OCCO)cc1` [Triton-X] as the compound, how does the “Reduction in absorbance (positive controls)” value (MDCK-WT cells) read?
**A.** 90%

**Q.** For `CSCCC(N)C(=O)OC(CC(Cc1ccccc1)NC(=O)C(C(C)C)N1CCCNC1=O)C(Cc1ccccc1)NC(=O)COc1c(C)cccc1C` (stereo not shown) [Met-LPV, methionine-LPV], which “Solubility, fold higher relative to LPV” value [1] is on record?
**A.** ~9 fold

**Q.** And the “Solubility in DDW” value [1]?
**A.** 362 ± 21 µg/mL (≈ 476 µM)

**Q.** And the Degradation half life ([2]; pH 4, 37 °C)?
**A.** 119 ± 6 h

**Q.** What about the Degradation half life ([2]; pH 5.5, 37 °C) of the same compound?
**A.** 55 ± 6 h

**Q.** What about the Degradation half life ([2]; pH 7.4, 37 °C) of the same compound?
**A.** 6.2 ± 0.4 h

**Q.** What about the “A-B permeability, fold higher relative to LPV” value (P-gp (MDCK-MDR1 cells) [3]) of the same compound?
**A.** ~2.3 fold

**Q.** And the “Degradation rate constant in liver microsomal solution” value [4]?
**A.** ~3.6 ± 0.4 × 10^−^3 min^−^1

**Q.** What about the “Intrinsic clearance (Vmax/Km)” value [4] of the same compound?
**A.** 0.5 mL/min/mg protein

**Q.** And the Km [4]?
**A.** ~13 µM

**Q.** And the “Half life … fold higher compared to LPV” value [4]?
**A.** 1.6 to 1.8 fold

**Q.** What about the “A-B permeability, fold higher relative to LPV” value (MRP2 (MDCK-MRP2 cells) [5]) of the same compound?
**A.** ~1.9 fold

**Q.** And the “Cellular uptake, fold higher relative to LPV” value (P-gp (MDCK-MDR1 cells) [6])?
**A.** ~2.4 fold
